# Test results as given in patent publication US20230060425A1, “FUSED BICYCLIC HETEROCYCLE DERIVATIVES AS PESTICIDES” (Bayer Aktiengesellschaft, priority 2019, published 2023).
# Columns and labels:
# Format in all cases: in vivo
# Boophilus microplus = Boophilus microplus injection test; details: application rate 20 μg/animal, after 7 days, laying of fertile eggs
# Protocol: Boophilus microplus—Injection Test
# (§1) Solvent: Dimethyl sulfoxide
# To produce a suitable active compound formulation, 10 mg of active compound are mixed with 0.5 ml of solvent and the concentrate is diluted to the desired concentration with solvent.
# 1 μl of the active compound solution is injected into the abdomen of 5 engorged adult female cattle ticks (Boophilus microplus). The animals are transferred into dishes and kept in a climate-controlled room.
# Efficacy is assessed after 7 days by laying of fertile eggs. Eggs which are not visibly fertile are stored in a climate-controlled cabinet until the larvae hatch after about 42 days. An efficacy of 100% means that none of the ticks has laid any fertile eggs; 0% means that all the eggs are fertile.
# Ctenocephalides felis = Ctenocephalides felis oral test; details: 48 h, application rate 100 ppm, in citrated cattle blood, after 2 days, read-out: efficacy (kill in %)
# Method in brief: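 Adult unfed cat fleas (~20 per chamber) fed through parafilm membrane on citrated cattle blood containing compound (DMSO formulation diluted in blood to test concentration). Kill (%) scored after 2 days; 100% = all fleas dead, 0% = none.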
# Myzus persicae [1] = assay: Myzus persicae spray test; details: foliar, 120 h, application rate 100 g/ha, Chinese cabbage leaf discs, after 5 days, read-out: efficacy
# Method in brief: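 Chinese cabbage leaf discs infested with all stages of Myzus persicae were sprayed with compound in acetone/DMF, diluted in water containing 1000 ppm emulsifier. Efficacy in % assessed after 5 days: 100% all aphids killed, 0% none killed.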
# Lucilia cuprina = Lucilia cuprina test; details: application rate 100 ppm; L1 larvae; after 2 days
# Protocol: as §1
# To produce a suitable active compound formulation, 10 mg of active compound are mixed with 0.5 ml of dimethyl sulfoxide, and the concentrate is diluted with water to the desired concentration.
# About 20 L1 larvae of the Australian sheep blowfly (Lucilia cuprina) are transferred into a test vessel containing minced horsemeat and the active compound formulation of the desired concentration.
# After 2 days, the kill in % is determined. 100% means that all the larvae have been killed; 0% means that no larvae have been killed.
# Myzus persicae [2] = assay: Myzus persicae oral test; details: 120 h, application rate 4 ppm, after 5 days, read-out: efficacy
# Method in brief: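 Aphid feeding test: compound dissolved in acetone, diluted with water and mixed with IPL41 insect medium plus sugar, offered through parafilm to a mixed population of green peach aphids. Mortality scored after 5 days as % efficacy (100% = all aphids dead, 0% = none dead).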
# Spodoptera frugiperda = Spodoptera frugiperda spray test; details: foliar, 168 h, application rate 100 g/ha, maize leaf discs, after 7 days, read-out: efficacy
# Protocol: Spodoptera frugiperda—Spray Test
# Solvent: • 78.0 parts by weight of acetone • 1.5 parts by weight of dimethylformamide
# Emulsifier: alkylaryl polyglycol ether
# To produce further test concentrations, the formulation is diluted with emulsifier-containing water.
# After 7 days, the efficacy in % is determined. 100% means that all the caterpillars have been killed; 0% means that no caterpillar has been killed.
# Phaedon cochleariae = Phaedon cochleariae spray test; details: foliar, 168 h, application rate 100 g/ha, Chinese cabbage leaf discs, after 7 days, read-out: efficacy
# Method in brief: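 Chinese cabbage leaf discs sprayed with compound formulated in acetone/DMF and emulsifier-containing water, then infested with mustard beetle larvae after drying. Efficacy read after 7 days as % larvae killed.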
compound,measurement,setting,value
CCS(=O)(=O)c1c(-c2nc3cc(C(F)(F)F)cnc3n2C)ncc2cc(Cl)ccc12 [Example I-010],efficacy,Boophilus microplus,80%
same,pest or weed control at 100 ppm,Ctenocephalides felis,100%
same,pest or weed control at 100 g/ha,Myzus persicae [1],100%
same,efficacy (kill in %),Lucilia cuprina,100%
same,pest or weed control at 4 ppm,Myzus persicae [2],100%
same,pest or weed control at 100 g/ha,Spodoptera frugiperda,100%
same,pest or weed control at 100 g/ha,Phaedon cochleariae,100%
